The results in this text go back to US20060111289A1, “Compositions and methods of using Alpha-fetoprotein growth inhibitory peptides” (Serometrix, LLC,, priority 2004, published 2006).

For assay [1], the system named is MCF-7 cells. Nature of the assay: Estrogen-dependent MCF-7 foci formation assay. Format: cell-based, human. Also on record: % Inhibition Of Activity: MCF-7 foci formation: concentration or dose not given beside the values. The text has this:
Mizejewski et al., “Alpha-fetoprotein derived synthetic peptides: assay of an estrogen-modifying regulatory segment” Mol Cell Endocrinol 118:15-23 (1996). The P149 peptide inhibited the formation of tumor cell foci formed as a result of the accumulation of breast cancer cells which clump together due to loss of contact inhibition.

Assay [2] concerns immature mouse uterine growth. The assay is described as follows: E2-activated immature mouse uterine growth assay. Format: in vivo. On the set-up: concentration or dose not given beside the values.
Assay [3] is described as follows: Estrogen fetotoxicity. On the set-up: concentration or dose not given beside the values. The following applies: in vivo.
Assay [4] has as its system human kidney tumor cell line.
Assay [5] concerns MCF-7 and 6WI-1 tumor cells. Nature of the assay: Tumor cell adhesion to ECM proteins in microtiter plates. The class given is cell-based, human, murine. As to the method: FIG. 8 presents exemplary data showing the inhibition of P149 in the cellular adhesion of cancer cells to extracellular matrix (ECM) proteins for both human MCF-7 breast cancer cells and for murine 6WI-1 ascites-adapted mammary tumor cells. The cellular adhesion assay was performed in 96-well microtiter plates (Nunc Company, Denmark, catalog #263339) and the wells were pre-coated with 100 microliters of each of the above-mentioned ECM proteins for 24 hours as previously determined. After adding tumor cells, the plates were then incubated at 37° C. for various times; while 6WI-1 cells usually required only 2-4 hours incubation for adhesion; MCF-7 cells required 24 hours for attachment following trypsinization. For both cell lines, the cell culture media contained 5% calf serum to ensure cell attachment. The plates were washed twice with Hank's Saline, fixed in 0.5 mL of 37% formaldehyde, stained with crystal violet and read at […] on a microplate reader. Inset: Using a CyQUANT® stain kit, (Hoechst Corp., Germany) the plates were first exposed to a freeze/thaw cycle at −70° C. for 24 hours and 37° C. for 10 minutes. CyQUANT® buffer solution (150 microliters) was added to each well, and the cell adhesion was measured by fluorescence spectroscopy and quantitated using an ImageQuant® plate scanner (Fluorimager 595, Molecular Dynamics, Sunnyvale, Calif.).
This attachment of GIP was a slightly weaker adhesion matrix than was gelatin, chondroitin sulfate, and poly-lysine which approximated 30-35%. Using P149, the optimal amount of peptide required to inhibit tumor cell adhesion was determined by absorbing soluble peptide (1.0 pg to 100 μg) to the walls of microtiter plates. A constant number of MCF-7 tumor cells (i.e., for example, 1×10^5) were then added to the microtiter well and adhesion quantitated by fluorescence. […] The quantitation of MCF-7 and 6WI-1 cell adhesion in the presence of peptide versus peptide-free media was then determined on ECM-coated microtiter plates using 3 μg GIP/well as a competitive inhibitor. The P149 peptide was added to the wells immediately after the cells were dispensed and then the mixture was incubated as described. The AFP peptide was capable of cell adhesion inhibition in most of the ECM proteins in both tumor cell lines. Inhibition of mouse and human tumor cell adhesion was somewhat equivalent using collagen IV, fibrinogen, fibronectin, and thrombospondin. […] Thus, the GIP was found capable of eliciting different attachment inhibitions dependent on the type of ECM protein coating the wall of the microtiter plate and also the tumor cell type involved.

Assay [6] has as its system 6WI-1 mammary tumor cells. The assay is described as follows: 6WI-1 mammary tumor in 15-day old mouse pups (6 day assay). The class given is in vivo. Also on record: % Inhibition Of Activity: 6WI-1 Pup Ascites: concentration or dose not given beside the values. The note with it: mouse pups. The text has this:
As an alternative model of the 6WI-I mammary tumor in adult mice, an inocula of 1×10^6 tumor cells injected into 15-day old mouse pups provided a 6 day rather than a 12 day assay and replicated the same tumor growth suppression by GIP.

The test system of assay [7] is human platelets. The assay is described as follows: Platelet aggregation in human platelet-rich plasma. Format: cell-based. On the set-up: % Inhibition Of Activity: Platelet Agg. ADP / % Inhibition Of Activity: Platelet Agg. AA / % Inhibition Of Activity: Platelet Agg. Coll: concentration or dose not given beside the values. As to the method: FIG. 9 presents exemplary data showing platelet aggregation modulation using 0.5 ml of normal human platelet-rich plasma (PRP) with varying amounts of P149 or P 149b using 2.5×10^6 platelets per reaction vessel.
FIG. 10 presents exemplary data showing platelet aggregation activation by arachidonic acid (AA) and collagen using P149-treated platelet suspensions • Panel A1: AA alone; • Panel A2: AA followed by epinephine (EPI) and EPI alone using P149b; • Panel A3: CD62P flow cytometry fluorescence quenching by P149; • Panel B1: collagen alone and collagen+P149; • Panel B2: collagen alone; collagen+P149a showing aggregation diminution.
GIP-derived peptide fragments and/or subfragments have been assayed for platelet aggregation by measuring light transmissions with an aggregometer using a stirred human platelet suspension. Kinlough-Rathbone et al., In: Platelet Aggregation in Measurements of Platelet Function, Eds. Harker L A, Zimmerman T S., Churchill Livingstone, London. pp. 64-87 (1983); and Whittle et al., “Specificity between the anti-aggregatory actions of prostacyclin, prostaglandin Eland D2 on platelets” In: Mechanisms of stimulus—response coupling in platelets, Eds. V. V. K., MacIntyre D E, Scully M F., New York and London: Plenum Press. pp. 109-115 (1985).
The ability of GIP and its fragments were individually examined for aggregation inhibition using citrated human platelet-rich plasma (PRP). The peptides were freshly dissolved in 0.15 M NaCl containing 2.5×10^6 platelets/ml. […]

In assay [8] the test system is 6WI-1 mammary tumor cells. Nature of the assay: Mouse ascites mammary tumor assay (6WI-1 isograft). The class given is in vivo. As to the method:
The growth suppression of the mammary ascites tumor by AFP peptides and its fragments P149a, P149b and P149c, and control peptides were determined in non-estrogen dependent assays which measured tumor cell growth and ascites accumulation of 6WI-1 mammary transplanted NYLAR/nya mice. […] Tumor cell inocula included doses of 0.3, 1.0, and 3.0×10^6 cells which produced host mortality at 12-14 days which was lethal in 100% of the animals. Following peptide dose titration studies, mice inoculated with 6WI-1 mammary cells were injected with a previously-determined optimal dose of 1.0 μg peptide per day or saline for 11 days. On day 12 following inoculation, the total accumulated ascites fluid volume and tumor cells in the peritoneal cavity of each animal were harvested and the cell count determined.
Inoculation of mice with all three cell doses led to an increase in body weight from 25 g (day 0) to approximately […] by day 12, due to the accumulation of tumor cells and ascites fluid in the intraperitoneal cavity. An average cell count in accumulated ascites fluid on day 12 was greater than 10^8 cells/ml with a total ascites volume approximating 20 mls. Tumor cell proliferation in this model has been reported to correlate with the volume of ascites fluid accumulated.
The 6WI-1 mouse mammary tumor studies involving peptide and non-peptide treatment were further compared by histopathological analysis performed on hematoxylin/eosin stained tissue sections.

The test system of assay [9] is immature mouse uterine growth. The assay is described as follows: E2-activated immature mouse uterine growth assay. On the set-up: % Inhibition Of Activity: Uterine Growth: concentration or dose not given beside the values. The note with it: mouse, in vivo. Format: in vivo. The procedure:
FIG. 3 presents exemplary data showing the growth suppressive activities of the oligomeric forms of P149, cyclic versus linear, are depicted in various in vitro and in vivo models. Biological activity was determined by three growth-dependent bioassays, namely; • Panel-A and A1) an immature rodent uterine bioassay; • Panel-B and B 1) an in vitro MCF-7 foci assay; • Panel-C and C1) an in vitro tumor cell cytostatic assessment. […] See text for details. Scrambled peptide=P327. […]

The mark [10] stands for this setting: 6WI-1 mouse mammary ascites tumor.

For the sequence “MTPVNPGV (listed as Homo sapiens) [P149c]”, in assay [1], the “% Inhibition Of Activity: MCF-7 foci formation” value was 45%. Besides, the “% Inhibition Of Activity: Uterine Growth, Enzymatic Fragments” value in [2] came out at 44%. In addition, the “% Inhibition Of Activity: Estrogen Fetotoxicty” value in assay [3] is on record as 37%. In addition, the “% Inhibition Of Activity: Kidney tumor growth” value in assay [4] is reported as 19%. The “% Inhibition Of Activity: Cell Adhesion” value in assay [5] was found to be 56%. Also, in assay [6], the “% Inhibition Of Activity: 6WI-1 Pup Ascites” value is 29%. Also, the “Inhibition of platelet aggregations induced by ADP and collagen” value in [7] is listed as “no significant inhibition”. In addition, in assay [7] (ADP-induced), the “% Inhibition Of Activity: Platelet Agg. ADP” value is reported as 0%. Besides, in assay [7] (arachidonic acid-induced), the “% Inhibition Of Activity: Platelet Agg. AA” value was 0%. Moreover, the “% Inhibition Of Activity: Platelet Agg. Coll” value in assay [7] (collagen-induced) was determined as 0%. Also, in assay [7] (inducer not specified), the Platelet aggregation inhibition result was “lack inhibitory capabilities”. For the same sequence, in [7] (peptide inhibitors 30 & 100 μM), the “Inhibition (%) Of Platelet Aggregation, Adenosine Diphosphate (ADP) 2.5 μM” value was “No effect”; the “Inhibition (%) Of Platelet Aggregation, Arachidonic Acid (AA) 0.3 mM” value is reported as “No effect”; the “Inhibition (%) Of Platelet Aggregation, Collagen (COLL) 2 μg/ml” value is recorded as “No effect”; the “Inhibition (%) Of Platelet Aggregation, Epinephrine” value is “No effect”. The “Suppression of accumulation of cells and ascites fluid volume (anticancer activity)” value in assay [8] (1.0 μg peptide per day for 11 days) is listed as “significantly suppressed”. In [8] (setting [10]), the “% Inhibition Of Activity: 6WI-1 Acites Volume” value is listed as 39%, the “% Inhibition Of Activity: 6WI-1 Body Weight” value turned out to be 44% and the “% Inhibition Of Activity: 6WI-1 Cell Prol” value came to 45%. The “% Inhibition Of Activity: Uterine Growth” value in assay [9] is 42%.
